Values quoted from earlier work, collected in patent US11246867B2, “Pharmaceutical composition comprising pimobendan” (Ceva Sante Animale, priority 2015, dated 2022).

Conditions: pH 5

COc1ccc(-c2nc3ccc(C4=NNC(=O)CC4C)cc3[nH]2)cc1 (stereo not shown) [pimobendan, 4,5-dihydro-6-[2-(4-methoxyphenyl)-1H-benzimidazol-5-yl]-5-methyl-3(2H)-pyridazone]
solubility in water: about 1 mg/liter
